Reference: US11793208B2, “Antimicrobial treatment of animal carcasses and food products” (EVONIK OPERATIONS GMBH, priority 2017, dated 2023)
One block for each compound: values may come before it.

Tests used:
[1] = tested on: Salmonella enterica ATCC 14028; experiment: Salmonella suspension testing method; assay type: cell-based; conditions: for Average Log10 reduction: 60 min treatment, 5% organic load; for kill of Salmonella: organic acid with addition of percarbonate, relatively high pH
Protocol: The effect of organic acids and alkaline modifiers on microbial viability was assayed using a Salmonella suspension testing method as described below. […] A 1:5 dilution of organism was prepared in Butterfield's buffer. This dilution was added in equal parts to sterile fetal bovine serum in order to produce a working inoculum containing a 50% organic load. […] Then, a 1 mL aliquot of working inoculum was added to the test solution and vortexed briefly to mix. A 1 mL aliquot was removed from the mixture at 1, 30, and 60 minutes following inoculation, and immediately added to a 9 mL volume of Letheen neutralizing broth. This broth was then vortex mixed, diluted serially into Butterfield's buffer, and the dilutions plated on 3[…] Aerobic Count Plates. The plates were incubated for 24-48 hours at 35° C., and then counted manually. Log 10 calculations were performed to obtain the Log 10 CFU/mL of the solutions at each time point.

[2] = tested on: Aerobic Plate Count (APC); experiment: Microbial reduction after PAA treatment of chicken livers: Aerobic Plate Count; assay type: cell-based; conditions: PAA 1000 ppm
Protocol: (§1) Six chicken livers were added to 500 mL of peracetic acid solution, and incubated room temperature for 5, 15, or 30 seconds. Then the livers were removed and quickly added individually to 100 mL Buffered Peptone Water in a sterile cup, 1 liver per cup. Cups were manually shaken for 30 seconds and the liquid was sampled for plating. Sample rinses were serially diluted using Butterfield's buffer and plated on Aerobic Plate Count (APC) and Escherichia coli Coliform (ECC) plates. The plates were incubated for 24-48 hours at a temperature of 35° C., and then counted manually. Log10 calculations were performed to obtain the Log10 CFU/mL of the solutions at each time point.

[3] = tested on: Aerobic Plate Count (APC); experiment: Microbial reduction after PAA treatment of lamb livers: Aerobic Plate Count; assay type: cell-based; conditions: PAA 100 ppm
[4] = tested on: Enterobacteriaceae; experiment: Microbial load of rinses from treated poultry offal: Enterobacteriaceae count; assay type: cell-based; conditions: 8-10 seconds
Protocol: (§2) For offal treatments, mixtures of organic acids and peroxyacids were prepared by weighing the components and dissolving them in water to reach the desired concentration. Peracetic acid (PAA) solutions were prepared by diluting VigorOx® (PeroxyChem LLC) with tap water to obtain the target concentration.
(§3) The pH of the aseptic compositions was adjusted using a 25% aqueous solution of NaOH, solid sodium carbonate, or sodium bicarbonate. The amount of active oxygen was confirmed by titration on an autotitrator and by using Chemetrics test kits K-7913F and K-5543.
(§4) Fresh poultry livers and gizzards, and lamb livers and kidneys were purchased untreated and fresh (not frozen) from local suppliers. All offal was kept refrigerated before testing.
(§5) Poultry offal was collected into a single large plastic bag. A gloved hand was used to remove either 6 whole, bi-lobed livers or 12 gizzards and place them in 350 mL of either water, an 840 ppm PAA solution, or an 840 ppm PAA solution that had been adjusted to a pH of 10.2 with sodium hydroxide and used within 5 minutes of pH adjustment. The samples were incubated in the solutions for 8-10 seconds. After treatment, a freshly gloved hand was used to remove 2 livers (or 4 gizzards) into a small plastic strainer. The treated samples were allowed to drain for 30 to 60 seconds to remove excess moisture. Each set of 2 livers (or 4 gizzards) was then placed into 100 mL peptone buffer and rinsed in the peptone for 30 seconds. A few milliliters of rinsate were removed by transfer pipette and kept on ice for dilution and plating. The plates were incubated for 24 to 48 hours at 35° C. and counted manually to determine the Aerobic Plate Count (APC) and the Enterobacteriaceae count (EBC). The color of the treated samples was noted by visual inspection.

[5] = Concentration of PAA and H2O2 in the presence of alkaline modifiers; assay type: physicochemical; conditions: for H2O2, ppm in 1 hour / PAA, ppm in 1 hour: after 1 hour at 4° C.; for H2O2, ppm Initial / PAA, ppm Initial: immediately after preparation; for effect of alkaline modifier on concentration of both PAA and hydrogen peroxide: PAA solution with the alkaline modifier, 1 hour at 4° C.
[6] = tested on: Escherichia coli Coliform (ECC); experiment: Microbial reduction after PAA treatment of chicken livers: Escherichia coli Coliform plates; assay type: cell-based; conditions: PAA 1000 ppm
Protocol: as §1

[7] = tested on: Aerobic Plate Count (APC); experiment: Microbial load of rinses from treated poultry offal: Aerobic Plate Count; assay type: cell-based; conditions: 8-10 seconds
Protocol: as §2, §3, §4, §5

[8] = pH of tap water containing acids and alkaline modifiers, before and after contact with chicken breast; assay type: physicochemical; conditions: for pH after 1 hour: 1 hour at 4° C. with chicken breast; for pH initial: tap water 4° C., before addition of poultry
Protocol: Organic acids were added to plastic containers containing 5.0 L of tap water at 4° C. The alkaline modifiers, NaOH, Na2CO3, Na2CO3.1.5H2O2, Na3PO4, were added to the solution in the plastic container in an amount sufficient to bring pH to about 7-9 depending upon the pKa of the organic acid. Then, 5 pieces of chicken breast weighing about 200 gram each were added to each container. The solution was then incubated for one hour at 4° C., with periodic stirring. The pH was measured immediately before the addition of the poultry and then after the 1 hour incubation at 4° C.

[9] = alkaline modifier Na2CO3, pH 8.5, treatment time 5 seconds
[10] = alkaline modifier NaHCO3, pH 7.5, treatment time 15 seconds
[11] = alkaline modifier NaHCO3, pH 7.5, treatment time 30 seconds
[12] = alkaline modifier NaOH, pH 7.5, treatment time 5 seconds
[13] = no alkaline modifier, pH 3.1, treatment time 5 seconds
[14] = no alkaline modifier, pH 3.1, treatment time 15 seconds
[15] = Gizzards, 840 ppm PAA adjusted to pH 10.2 with sodium hydroxide
[16] = Livers, 840 ppm PAA adjusted to pH 10.2 with sodium hydroxide
[17] = additive Na5P3O10 125 ppm, initial PAA 10.4 ppm
[18] = additive Na5P3O10 125 ppm, initial PAA 30.1 ppm
[19] = Citric 2,500 ppm, alkaline modifier Na2CO3•1.5H2O2
[20] = Citric 5,000 ppm, alkaline modifier Na2CO3•1.5H2O2
[21] = Glycolic 250 ppm, alkaline modifier Na2CO3
[22] = Glycolic 250 ppm, alkaline modifier NaOH
[23] = Glycolic 500 ppm, no alkaline modifier

Compound: CCC(=O)O [Propionic, propionic acid]
Average Log10 reduction ([1]; Propionic 0.5%, alkaline modifier Na2CO3•1.5H2O2, pH 7.5): 7.07
Average Log10 reduction ([1]; Propionic 0.5%, no alkaline modifier, pH 3.1): 2.15
kill of Salmonella [1]: virtually complete kill

Compound: CC(=O)OO [PAA, Peracetic acid]
APC log10 reduction [2, 9]: 1.1
APC log10 reduction [2, 10]: 1.1
APC log10 reduction [2, 11]: 1.7
APC log10 reduction [2, 12]: 1.1
APC log10 reduction [2, 13]: 0.9
APC log10 reduction [2, 14]: 1.2
APC log10 reduction ([3]; additive Citric acid, 2%, pH 7.5 (sodium carbonate), treatment time 10 minutes): 1.8
APC log10 reduction ([3]; additive Lactic acid, 2%, pH 7.5 (sodium carbonate), treatment time 10 minutes): 1.8
APC log10 reduction ([3]; no additive, pH 4.1, treatment time 10 minutes): 2.2
APC log10 reduction ([3]; no additive, pH 7.5 (adjusted with sodium carbonate), treatment time 10 minutes): 3.0
Log EBC [4, 15]: 0.00
Log EBC ([4]; Gizzards, 840 ppm PAA, pH 3.4): 0.00
Log EBC [4, 16]: 0.00
Log EBC ([4]; Livers, 840 ppm PAA, pH 3.4): 0.00
H2O2, ppm in 1 hour ([5]; no additive (0 ppm)): 11 ppm
PAA, ppm in 1 hour ([5]; no additive (0 ppm)): 24 ppm
H2O2, ppm Initial ([5]; no additive (0 ppm)): 11 ppm
PAA, ppm Initial ([5]; no additive (0 ppm)): 25 ppm
ECC log10 reduction [6, 9]: 1.1
ECC log10 reduction [6, 10]: 3.1
ECC log10 reduction [6, 11]: 3.1
ECC log10 reduction [6, 12]: 0.8
ECC log10 reduction [6, 13]: 0.5
ECC log10 reduction [6, 14]: 1.1
Log APC [7, 15]: 0.85
Log APC ([7]; Gizzards, 840 ppm PAA, pH 3.4): 0.70
Log APC [7, 16]: 0.30
Log APC ([7]; Livers, 840 ppm PAA, pH 3.4): 0.00

Compound: [Na+].[OH-] [NaOH, sodium hydroxide, reference compound]
effect of alkaline modifier on concentration of both PAA and hydrogen peroxide [5]: relatively rapid decrease
H2O2, ppm in 1 hour ([5]; additive NaOH 100 ppm): 4 ppm
PAA, ppm in 1 hour ([5]; additive NaOH 100 ppm): 8 ppm
H2O2, ppm Initial ([5]; additive NaOH 100 ppm): 11 ppm
PAA, ppm Initial ([5]; additive NaOH 100 ppm): 25 ppm

Compound: O=P(O)(O)OP(=O)(O)OP(=O)(O)O [Na5P3O10, sodium tripolyphosphate, reference compound]
effect of alkaline modifier on concentration of both PAA and hydrogen peroxide [5]: relatively rapid decrease
PAA, ppm Initial ([5]; additive Na5P3O10 125 ppm, higher PAA level): 30.1 ppm
H2O2, ppm in 1 hour [5, 17]: 1.4 ppm
PAA, ppm in 1 hour [5, 17]: 4.0 ppm
H2O2, ppm Initial [5, 17]: 6.5 ppm
H2O2, ppm in 1 hour [5, 18]: 4.8 ppm
PAA, ppm in 1 hour [5, 18]: 8.6 ppm
H2O2, ppm Initial [5, 18]: 20.1 ppm
PAA, ppm Initial ([5]; additive Na5P3O10 125 ppm, lower PAA level): 10.4 ppm

Compound: O=C(O)CO [Glycolic, glycolic acid]
pH after 1 hour [8, 21]: 6.8
pH initial [8, 21]: 6.7
pH after 1 hour [8, 22]: 7.5
pH initial [8, 22]: 9.0
pH after 1 hour [8, 23]: 4.5
pH initial [8, 23]: 3.6

Continued, in another order:

pH after 1 hour [8, 19]: 7.5
pH initial [8, 19]: 7.5
pH after 1 hour [8, 20]: 8.5
pH initial [8, 20]: 8.5
Compound: O=C(O)CC(O)(CC(=O)O)C(=O)O [Citric, citric acid]
Average Log10 reduction ([1]; Citric 0.5%, alkaline modifier Na2CO3•1.5H2O2, pH 7.5): 7.09
Average Log10 reduction ([1]; Citric 0.5%, no alkaline modifier, pH 2.4): 3.83
kill of Salmonella [1]: virtually complete kill

effect of alkaline modifier on concentration of both PAA and hydrogen peroxide [5]: remained relatively stable
H2O2, ppm in 1 hour ([5]; additive NaHCO3 125 ppm): 6.3 ppm
PAA, ppm in 1 hour ([5]; additive NaHCO3 125 ppm): 8.5 ppm
H2O2, ppm Initial ([5]; additive NaHCO3 125 ppm): 6.5 ppm
PAA, ppm Initial ([5]; additive NaHCO3 125 ppm): 10.4 ppm
H2O2, ppm in 1 hour ([5]; additive NaHCO3 250 ppm): 18.9 ppm
PAA, ppm in 1 hour ([5]; additive NaHCO3 250 ppm): 29.6 ppm
H2O2, ppm Initial ([5]; additive NaHCO3 250 ppm): 19.9 ppm
PAA, ppm Initial ([5]; additive NaHCO3 250 ppm): 30.3 ppm
H2O2, ppm in 1 hour ([5]; additive NaHCO3 275 ppm): 11 ppm
PAA, ppm in 1 hour ([5]; additive NaHCO3 275 ppm): 23 ppm
H2O2, ppm Initial ([5]; additive NaHCO3 275 ppm): 11 ppm
PAA, ppm Initial ([5]; additive NaHCO3 275 ppm): 25 ppm
Compound: O=C([O-])O.[Na+] [NaHCO3, sodium bicarbonate]
